Experimental data from PMC2697495 (The Journal of pharmacy and pharmacology, 2008).
Marks after values point to notes of the source that are not given here.

Key:
[1] = tested on: pooled human liver microsomes (pHLMs); experiment: 5-HT glucuronidation by pooled human liver microsomes; type: biochemical; conditions: pHLM, 4 mM 5-HT, n=3
UGT1A6 (HEK293) = target: T1, UGT1A6 (HEK293) (Homo sapiens, UniProt P19224); experiment: 5-HT glucuronidation by recombinant UGT1A6; type: biochemical; conditions: for 5-HT glucuronidation, % of the control activity (measured at 0 mM): UGT1A6 (HEK293), 4 mM 5-HT, n=3
T1 sequence (P19224 27-532): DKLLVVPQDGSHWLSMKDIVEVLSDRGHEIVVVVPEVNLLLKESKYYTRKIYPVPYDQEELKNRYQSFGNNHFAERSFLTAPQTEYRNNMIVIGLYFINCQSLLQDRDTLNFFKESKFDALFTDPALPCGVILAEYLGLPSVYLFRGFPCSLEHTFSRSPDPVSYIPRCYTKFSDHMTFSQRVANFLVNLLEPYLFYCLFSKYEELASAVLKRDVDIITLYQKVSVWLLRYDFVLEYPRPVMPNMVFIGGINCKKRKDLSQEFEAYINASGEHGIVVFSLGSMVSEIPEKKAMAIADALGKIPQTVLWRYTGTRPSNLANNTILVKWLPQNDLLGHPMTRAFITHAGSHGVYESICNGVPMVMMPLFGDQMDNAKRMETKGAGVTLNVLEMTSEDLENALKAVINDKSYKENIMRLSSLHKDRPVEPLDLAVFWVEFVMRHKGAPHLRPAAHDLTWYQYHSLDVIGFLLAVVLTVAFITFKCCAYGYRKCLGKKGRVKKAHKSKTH

[2] = tested on: pooled human liver microsomes (pHLMs); experiment: Trifluoperazine glucuronidation by pHLMs; type: biochemical; conditions: pHLM, 200 μM trifluoperazine, n=3
UGT2B4 = UGT2B4 (Homo sapiens, UniProt P06133); experiment: Codeine glucuronidation by recombinant UGT2B4; type: biochemical; conditions: 1 mM codeine, n=3
[3] = tested on: pooled human liver microsomes (pHLMs); experiment: Salicylic acid; type: biochemical; conditions: pHLM, 5 mM salicylic acid, phenol glucuronide, n=3
UGT1A1 = target: T2, UGT1A1 (Homo sapiens, UniProt P22309); experiment: Estradiol-3 glucuronidation by recombinant UGT1A1; type: biochemical; conditions: for Estradiol-3 glucuronidation, % of the control activity (measured at 0 mM): UGT1A1, 100 μM estradiol, n=3
T2 sequence (P22309 26-533): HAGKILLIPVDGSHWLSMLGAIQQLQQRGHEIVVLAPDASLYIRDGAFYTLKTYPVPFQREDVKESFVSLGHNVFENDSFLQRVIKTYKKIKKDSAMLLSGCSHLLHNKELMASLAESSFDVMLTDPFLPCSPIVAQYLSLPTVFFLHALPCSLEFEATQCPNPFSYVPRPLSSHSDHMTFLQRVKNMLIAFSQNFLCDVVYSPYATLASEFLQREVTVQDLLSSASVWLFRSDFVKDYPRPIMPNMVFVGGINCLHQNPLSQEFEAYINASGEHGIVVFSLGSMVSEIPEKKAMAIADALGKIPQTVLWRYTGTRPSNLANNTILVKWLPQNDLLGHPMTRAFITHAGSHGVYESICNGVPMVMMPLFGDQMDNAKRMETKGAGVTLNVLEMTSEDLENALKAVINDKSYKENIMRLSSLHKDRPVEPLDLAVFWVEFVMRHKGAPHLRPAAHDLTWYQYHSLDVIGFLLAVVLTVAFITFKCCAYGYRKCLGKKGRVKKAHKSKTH

[4] = tested on: pooled human liver microsomes (pHLMs); experiment: Estradiol-17 glucuronidation by pHLMs; type: biochemical; conditions: pHLM, 100 μM estradiol, n=3
UGT2B7 = target: T3, UGT2B7 (Homo sapiens, UniProt P16662); experiment: Estradiol-17 glucuronidation by recombinant UGT2B7; type: biochemical; conditions: for Estradiol-17 glucuronidation, % of the control activity (measured at 0 mM): UGT2B7, 100 μM estradiol, n=3
T3 sequence (P16662 24-529): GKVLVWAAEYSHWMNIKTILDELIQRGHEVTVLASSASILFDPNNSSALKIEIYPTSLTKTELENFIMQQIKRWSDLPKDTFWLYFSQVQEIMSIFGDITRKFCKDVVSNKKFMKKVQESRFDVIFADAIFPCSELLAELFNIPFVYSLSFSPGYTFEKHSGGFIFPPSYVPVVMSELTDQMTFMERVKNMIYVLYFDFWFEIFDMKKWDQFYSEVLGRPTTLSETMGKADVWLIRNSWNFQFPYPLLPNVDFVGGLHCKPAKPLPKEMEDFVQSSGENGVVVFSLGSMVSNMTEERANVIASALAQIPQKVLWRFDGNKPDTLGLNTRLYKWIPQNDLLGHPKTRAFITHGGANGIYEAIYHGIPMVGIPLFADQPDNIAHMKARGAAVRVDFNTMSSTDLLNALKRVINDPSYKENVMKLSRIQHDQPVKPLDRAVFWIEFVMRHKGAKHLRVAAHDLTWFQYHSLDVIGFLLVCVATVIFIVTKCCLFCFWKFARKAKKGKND

UGT2B15 = UGT2B15 (Homo sapiens, UniProt P54855); experiment: e-4-hydroxy-tamoxifen glucuronidation by insect cell-expressed UGT2B15; type: biochemical; conditions: 20 mM saccharolactone, pH-adjusted to 7.5
rat liver microsomes = conditions: 4 mM saccharolactone, ref Brunelle & Verbeeck 1993; cited from earlier work

Chain of UGT2B4 (P06133 24-528): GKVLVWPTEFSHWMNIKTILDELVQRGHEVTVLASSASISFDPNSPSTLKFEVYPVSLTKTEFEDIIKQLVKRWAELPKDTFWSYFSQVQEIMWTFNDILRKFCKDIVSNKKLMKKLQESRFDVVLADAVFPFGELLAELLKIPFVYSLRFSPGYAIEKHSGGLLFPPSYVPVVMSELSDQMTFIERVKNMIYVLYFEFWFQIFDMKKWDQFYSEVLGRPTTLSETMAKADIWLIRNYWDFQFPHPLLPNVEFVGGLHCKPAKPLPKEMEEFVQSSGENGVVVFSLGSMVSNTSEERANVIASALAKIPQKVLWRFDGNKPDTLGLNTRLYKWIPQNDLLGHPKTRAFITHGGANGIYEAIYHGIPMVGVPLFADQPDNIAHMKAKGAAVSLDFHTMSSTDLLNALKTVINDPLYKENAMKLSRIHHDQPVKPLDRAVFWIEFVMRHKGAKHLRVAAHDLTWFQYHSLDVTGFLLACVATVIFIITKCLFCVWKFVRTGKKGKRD
Chain of UGT2B15 (P54855 24-530): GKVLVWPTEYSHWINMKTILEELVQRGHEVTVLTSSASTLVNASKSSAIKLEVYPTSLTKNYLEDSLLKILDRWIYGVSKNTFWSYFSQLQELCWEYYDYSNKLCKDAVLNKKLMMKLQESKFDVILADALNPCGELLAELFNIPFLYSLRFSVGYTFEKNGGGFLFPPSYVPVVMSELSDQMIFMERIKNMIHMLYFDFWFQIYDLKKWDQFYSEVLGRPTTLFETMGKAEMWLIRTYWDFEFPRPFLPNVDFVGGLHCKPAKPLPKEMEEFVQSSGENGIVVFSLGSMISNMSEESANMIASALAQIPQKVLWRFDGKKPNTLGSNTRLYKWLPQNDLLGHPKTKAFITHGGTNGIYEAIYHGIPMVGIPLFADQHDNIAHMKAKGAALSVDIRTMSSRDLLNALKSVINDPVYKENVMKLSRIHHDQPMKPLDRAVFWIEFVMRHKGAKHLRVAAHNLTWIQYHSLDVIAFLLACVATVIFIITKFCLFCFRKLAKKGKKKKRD

## O=C(O)[C@@H](O)[C@H]1OC(=O)[C@H](O)[C@H]1O [saccharolactone, D-saccharic acid 1,4-lactone]
[1]; 1 mM saccharolactone (pH-adjusted)
  5-HT glucuronidation, % of the control activity (measured at 0 mM): 104±8%
[1]; 2 mM saccharolactone (pH-adjusted)
  5-HT glucuronidation, % of the control activity (measured at 0 mM): 93±5%
[1]; 5 mM saccharolactone (pH-adjusted)
  5-HT glucuronidation, % of the control activity (measured at 0 mM): 86±4 ^a %
[1]; 10 mM saccharolactone (pH-adjusted)
  5-HT glucuronidation, % of the control activity (measured at 0 mM): 87±4 ^a %
[1]; 20 mM saccharolactone (pH-adjusted)
  5-HT glucuronidation, % of the control activity (measured at 0 mM): 63±5 ^a %
UGT1A6 (HEK293); 5 mM saccharolactone
  5-HT glucuronidation, % of the control activity (measured at 0 mM): 91±6%
UGT1A6 (HEK293); 20 mM saccharolactone
  5-HT glucuronidation, % of the control activity (measured at 0 mM): 90±7%
UGT1A6 (HEK293); UGT1A6 expressed in mammalian (HEK293) cells, saccharolactone up to 20 mM
  effect on 5-hydroxytryptamine glucuronidation: no effect
[2]; 1 mM saccharolactone
  Trifluoperazine glucuronidation, % of the control activity (measured at 0 mM): 98±5%
[2]; 2 mM saccharolactone
  Trifluoperazine glucuronidation, % of the control activity (measured at 0 mM): 101±9%
[2]; 5 mM saccharolactone
  Trifluoperazine glucuronidation, % of the control activity (measured at 0 mM): 95±3%
[2]; 10 mM saccharolactone
  Trifluoperazine glucuronidation, % of the control activity (measured at 0 mM): 93±4%
[2]; 20 mM saccharolactone
  Trifluoperazine glucuronidation, % of the control activity (measured at 0 mM): 97±5%
UGT2B4; 5 mM saccharolactone
  Codeine glucuronidation, % of the control activity (measured at 0 mM): 91±4%
UGT2B4; 20 mM saccharolactone
  Codeine glucuronidation, % of the control activity (measured at 0 mM): 88±2%
[3]; 1 mM saccharolactone
  Salicylic Acid glucuronidation, % of the control activity (measured at 0 mM): 101±5%
[3]; 2 mM saccharolactone
  Salicylic Acid glucuronidation, % of the control activity (measured at 0 mM): 111±5%
[3]; 5 mM saccharolactone
  Salicylic Acid glucuronidation, % of the control activity (measured at 0 mM): 83±3 ^a %
[3]; 10 mM saccharolactone
  Salicylic Acid glucuronidation, % of the control activity (measured at 0 mM): 90±1%
[3]; 20 mM saccharolactone
  Salicylic Acid glucuronidation, % of the control activity (measured at 0 mM): 85±9 ^a %
UGT1A1; 5 mM saccharolactone
  Estradiol-3 glucuronidation, % of the control activity (measured at 0 mM): 92±2%
UGT1A1; 20 mM saccharolactone
  Estradiol-3 glucuronidation, % of the control activity (measured at 0 mM): 87±5%
UGT1A1; recombinant UGT1A1
  effect on estradiol glucuronidation: no effect
[4]; 1 mM saccharolactone
  Estradiol-17 glucuronidation, % of the control activity (measured at 0 mM): 71±4 ^a %
[4]; 2 mM saccharolactone
  Estradiol-17 glucuronidation, % of the control activity (measured at 0 mM): 81±8%
[4]; 5 mM saccharolactone
  Estradiol-17 glucuronidation, % of the control activity (measured at 0 mM): 78±7 ^a %
[4]; 10 mM saccharolactone
  Estradiol-17 glucuronidation, % of the control activity (measured at 0 mM): 68±2%
[4]; 20 mM saccharolactone
  Estradiol-17 glucuronidation, % of the control activity (measured at 0 mM): 66±6 ^a %
UGT2B7; 5 mM saccharolactone
  Estradiol-17 glucuronidation, % of the control activity (measured at 0 mM): 97±2%
UGT2B7; 20 mM saccharolactone
  Estradiol-17 glucuronidation, % of the control activity (measured at 0 mM): 87±7 ^a %
UGT2B7; recombinant UGT2B7, 20 mM saccharolactone, p<0.05
  reduction in estradiol-17 glucuronidation activity: 13%
UGT2B15
  decrease in e-4-hydroxy-tamoxifen glucuronidation activity: 25%
Rat liver microsomes
  change in diflunisal phenol glucuronide formation: no change
  increase of diflunisal acyl glucuronide formation (Vmax): 2 fold
